{"source": "patent US9290740B2", "about": "“Use of basic fibroblast growth factor in the de-differentiation of animal connective tissue cells” (Worcester Polytechnic Institute, priority 2008, dated 2016)", "tested_on": "Nanog in CRL-2352 (ATCC) cells", "test": "Effect of valproic acid on FGF2 de-differentiation (Nanog immunocytochemistry on glass coverslips)", "type": "cell-based, human", "conditions": "1.0 μM valproic acid with 4 ng/ml FGF2, glass coverslips, 5% O2, 6 days", "protocol": "The effect of valproic acid on FGF2 de-differentiation was also studied. CRL-2352 (ATCC) cells (2000 cells per well in 24-well plates containing sterile 12 mm glass coverslips) were cultured in medium consisting of DMEM:Ham's F12 (60:40, MediaTech) with 10% Fetalclone III (Hyclone, Logan, Utah) and 4 ng/ml FGF2, with and without 1.0 μM valproic acid, in parallel cultures. Cultures were carried out in a 37° C. incubator in a humidified environment of 5% CO2, 5% O2, and 90% N2 for 6 days with medium changed at day 3. Cells were washed with DPBS and fixed with −20° C. methanol for 10 min, washed with PBS and processed for immunocytochemistry.", "data": [{"smiles": "CCCC(CCC)C(=O)O", "note": "[valproic acid]", "values": [{"measurement": "nuclear staining for Nanog", "value": "increased nuclear staining for Nanog"}]}]}
